# From patent US8026073B2, “Screening G protein-coupled receptor antagonists for methods of treating Alzheimer's disease” (Shanghai Institutes for Biological Sciences, Chinese …, priority 2005, dated 2011)
# Entries after “also recorded” stand apart in the source; their conditions may differ.
# How the values were obtained:
# γ-secretase [1] = experiment: γ-Secretase activity in rat hippocampus after acute injection (fluorogenic substrate assay); conditions: rats, 2 μg norepinephrine i.c.v. or 0.5 mg/kg clenbuterol i.p.
# [2] = tested on: APPswe/PS1ΔE9 double-transgenic mice; experiment: Morris water maze, APPswe/PS1ΔE9 mice, Animal Model Experiment 2; format: in vivo, mouse; conditions: for escape latency, visible platform / escape latency, hidden platform: oral daily for 30 days, 2 mg/kg clenbuterol or 1 mg/kg ICI 118,551; for escape latency, hidden platform: versus Sal mice
# Procedure: In further animal experiments, four-month old APPswe/PS1ΔE9 double-transgenic mice were orally administered with saline (Sal), 2 mg/kg clenbuterol (Cle, a β2AR-selective agonist) or 1 mg/kg ICI 118,551 (ICI, a β2AR-selective antagonist) daily for 30 days.
# The water maze was a circular 1.2 m pool filled with water at 24-25° C. and made opaque by the addition of milk powder. The pool was placed amid fixed spatial cues consisting of boldly patterned curtains and shelves containing distinct objects. […] Mice first underwent visible platform training for 2 consecutive days (eight trials per day), swimming to a raised circular platform (10 cm of diameter) marked with a pole. Visible platform days were split into two training blocks of four trials for statistical analysis. During visible platform training, both the platform location (NE, SE, SW, or NW) and start position (N, […], S, or W) were varied pseudo-randomly in each trial.
# Hidden platform raining was conducted over 6 consecutive days (four trials per day), wherein mice were allowed to search for a platform submerged 1.5 cm beneath the surface of the water. Mice failing to reach the platform within 60 sec were led to the platform. During hidden-platform trials, the location of the platform remained constant, and mice entered the pool in one of the four pseudo-randomly selected locations (N, E, S, or W). After each hidden platform trial, mice remained on the platform for 30 sec and were removed from the platform and returned to their home cage.
# Twenty-four hours after the final hidden platform training, a probe trial was conducted in which the platform was removed from the pool and mice were allowed to search for the platform for 60 sec. All trials were monitored by a camera mounted directly above the pool and were recorded and analyzed using a computerized tracking system.
# Aβ40 and Aβ42 = experiment: Aβ levels in rat hippocampus after acute injection (rat Aβ ELISA); conditions: rats, 2 μg norepinephrine i.c.v. or 0.5 mg/kg clenbuterol i.p.
# APPswe/PS1ΔE9 mice [3] = experiment: Cerebral amyloid plaque formation in APPswe/PS1ΔE9 mice after chronic administration; conditions: daily for 30 days, 3 nM Iso i.c.v., 2 mg/kg Cle oral, 1 mg/kg ICI 118,551 oral
# γ-secretase [4] = experiment: γ-Secretase fluorogenic substrate assay, HEK293 cells treated with transferrin; format: cell-based; conditions: transferrin-induced endocytosis
# Procedure: However, it is till not clear whether clathrin-mediated endocytosis by itself is […] to induce the enhancement of γ-secretase activity. To answer this question, HEK293 cells were treated with transferrin, which can induce constitutive clathrin-dependent endocytosis of transferrin receptor.
# γ-secretase [5] = experiment: γ-Secretase fluorogenic substrate assay, SH-SY5Y neuroblastoma; format: cell-based
# Procedure: The enhancement of γ-secretase activity upon activation of receptors is not limited to β-AR. Similar results were also observed when endogenous DOR in SH-SY5Y neuroblastoma (FIG. 7a) or in primary hippocampal cultures (FIG. 7b) were stimulated.
# Again, the involvement of LEL in the enhancement of the γ-secretase activity is not limited to β-AR. […] The experiment shown in FIG. 12 was performed with SH-SY5Y neuroblastoma. […] The fractions were subjected to […] (Aβ) assay and fluorogenic substrate assay.
# [6] = stated as a property, no test described; cited from earlier work
# APPswe/PS1ΔE9 mice [7] = experiment: Morris water maze, APPswe/PS1ΔE9 mice, Animal Model Experiment 1; conditions: for swim speed as cause of the observed effects: FIG. 15d, 16d, 17d; for escape latency, visible platform training / escape latency, hidden platform training: oral administration from 4 months of age; for escape latency, visible platform training: transgenic mice; for escape latency, hidden platform training / percent time spent in the platform quadrant, probe trial: versus control transgenic mice; for percent time spent in the platform quadrant, probe trial: 24 h after the final hidden platform training
# β2AR = biological target: T1, β2AR (Homo sapiens, UniProt P07550); experiment: Secreted Aβ ELISA in HEK293 cells co-expressing β2AR and APPswe; format: cell-based; conditions: 10 μM Iso 1 h with 10 μM Pro, or after 6-h pre-treatment with 1 μM L685,458
# T1 construct: expressed in transfected cells; host or cells: HEK293
# γ-secretase [8] = experiment: Immunofluorescence microscopy of acute hippocampal slices, localization of γ-secretase in LEL; conditions: Iso treatment
# γ-secretase [9] = conditions: wild-type versus presenilin-deficient MEFs; 10 μM Iso, 30 min
# endogenous β-ARs = experiment: Secreted Aβ ELISA in primary hippocampal cultures expressing C99, β-AR stimulation; format: cell-based, rat; conditions: 10 μM Iso, 1 h
# γ-secretase [10] = experiment: γ-Secretase fluorogenic substrate assay, C6 glioma membrane fractions; format: cell-based
# γ-secretase [11] = experiment: γ-Secretase fluorogenic substrate assay, acute hippocampal slices; format: cell-based, rat; conditions: 1 μM DADLE, 30 minutes
# δ-opioid receptor (DOR) = δ-opioid receptor (DOR) (Homo sapiens, UniProt P41143); conditions: C99-transfected HEK293 cells; DADLE plus NALT
# Chain of δ-opioid receptor (DOR) (P41143 whole entry): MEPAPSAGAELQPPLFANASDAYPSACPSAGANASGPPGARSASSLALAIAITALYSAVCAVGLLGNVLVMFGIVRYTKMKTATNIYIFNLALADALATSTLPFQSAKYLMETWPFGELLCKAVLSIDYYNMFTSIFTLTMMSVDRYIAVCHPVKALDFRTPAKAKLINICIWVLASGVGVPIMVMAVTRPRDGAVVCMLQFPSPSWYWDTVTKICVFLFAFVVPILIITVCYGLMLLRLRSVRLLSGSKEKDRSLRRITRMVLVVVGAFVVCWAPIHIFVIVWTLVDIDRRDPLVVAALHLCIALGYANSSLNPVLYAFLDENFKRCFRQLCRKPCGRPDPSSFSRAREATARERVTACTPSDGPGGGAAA
# T1 sequence (P07550 whole entry): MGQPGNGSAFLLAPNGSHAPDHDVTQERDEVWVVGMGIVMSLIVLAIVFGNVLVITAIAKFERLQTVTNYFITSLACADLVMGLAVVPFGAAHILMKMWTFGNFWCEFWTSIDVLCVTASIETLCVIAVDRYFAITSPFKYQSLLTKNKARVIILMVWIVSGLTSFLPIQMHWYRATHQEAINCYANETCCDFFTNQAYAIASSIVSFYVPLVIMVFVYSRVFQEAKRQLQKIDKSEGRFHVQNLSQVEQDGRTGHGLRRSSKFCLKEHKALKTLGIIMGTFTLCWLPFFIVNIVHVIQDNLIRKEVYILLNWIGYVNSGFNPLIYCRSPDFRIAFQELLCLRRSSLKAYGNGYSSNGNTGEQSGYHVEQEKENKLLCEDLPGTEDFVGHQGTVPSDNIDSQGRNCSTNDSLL
compound,measurement,setting,value
CC(C)(C)NCC(O)c1cc(Cl)c(N)c(Cl)c1 (centres unmarked) [clenbuterol],γ-secretase activity in hippocampus,γ-secretase [1],significantly enhanced; also recorded: enhanced γ-secretase activity
same,"escape latency, visible platform",[2],"small, but statistically insignificant, effects of drug treatments; also recorded: No significant effect"
same,"escape latency, hidden platform",[2],seemed to have no effect
same,Aβ levels (Aβ40 and Aβ42) in hippocampus,Aβ40 and Aβ42,significantly enhanced; also recorded: increased secreted Aβ 40 and Aβ 42 levels
same,cerebral amyloid plaques,APPswe/PS1ΔE9 mice [3],accelerated amyloid plaque formation
same,cerebral amyloid plaques,APPswe/PS1ΔE9 mice [3]; listed as Cle,increased cerebral amyloid plaques
transferrin,γ-secretase activity,γ-secretase [4],does not lead to enhanced γ-secretase activity; also recorded: failed to enhance γ-secretase activity
pertussis toxin [PTX],effect on DADLE-induced enhancement of γ-secretase activity,"γ-secretase [5]; SH-SY5Y, 1 μM DADLE after 12 hours pre-treatment with 200 ng/ml PTX",not abolished; also recorded: did not alter the enhancement of γ-secretase activity
"Cc1ccc(OCC(O)C(C)NC(C)C)c2c1CCC2 (centres unmarked) [ICI 118,551]",crossing of the blood-brain barrier (BBB),[6],can cross the BBB
same,"percentage time spent on the platform, probe trial","[2]; 24-h after final hidden platform training, 1 mg/kg ICI 118,551 oral daily for 30 days, listed as ICI",spent greater proportion of time in the platform; also recorded: spent greater proportion of time in the target quadrant
same,"escape latency, visible platform",[2],"small, but statistically insignificant, effects of drug treatments; also recorded: No significant effect"
same,"escape latency, hidden platform",[2],displayed a faster learning curve than the Sal mice; also recorded: displayed a faster learning curve than the Sal ones
same,swim speed as cause of the observed effects,APPswe/PS1ΔE9 mice [7],did not result from changes in swim speeds
same,"escape latency, visible platform training",APPswe/PS1ΔE9 mice [7],no drug effect was observed
same,"escape latency, hidden platform training",APPswe/PS1ΔE9 mice [7],significantly ameliorated cognitive impairment
same,cerebral amyloid plaques,APPswe/PS1ΔE9 mice [3],significantly reduced the amounts of amyloid plaques; also recorded: effective in suppressing the formation of β-amyloid plaques
NC[C@H](O)c1ccc(O)c(O)c1 [norepinephrine],γ-secretase activity in hippocampus,γ-secretase [1],significantly enhanced; also recorded: enhanced γ-secretase activity
same,Aβ levels (Aβ40 and Aβ42) in hippocampus,Aβ40 and Aβ42,significantly enhanced; also recorded: increased secreted Aβ 40 and Aβ 42 levels
CC(C)NCC(O)COc1ccc(CCOCC2CC2)cc1 (centres unmarked) [Betaxolol],crossing of the blood-brain barrier (BBB),[6],can cross the BBB
same,"percent time spent in the platform quadrant, probe trial",APPswe/PS1ΔE9 mice [7],showed less significant effect; also recorded: showed no effect
same,"escape latency, visible platform training",APPswe/PS1ΔE9 mice [7],no drug effect was observed
same,"escape latency, hidden platform training",APPswe/PS1ΔE9 mice [7],"showed some effect; also recorded: showed some extent of amelioration, but the effect was not statistically significant"
"CC(C)C[C@H](NC(=O)[C@H](Cc1ccccc1)C[C@@H](O)[C@H](Cc1ccccc1)NC(=O)OC(C)(C)C)C(=O)N[C@@H](Cc1ccccc1)C(N)=O [L685,458]",effect on Iso-induced increase in secreted Aβ,β2AR,abolished the increased production of the secreted Aβ
"CC(C)NCC(O)c1ccc(O)c(O)c1 (centres unmarked) [Iso, isoproterenol]",co-localization of PS1 or nicastrin with LAMP-1,γ-secretase [8],increased
same,Iso-induced enhancement of γ-secretase activity,γ-secretase [9],Presenilin-deficiency abolished the Iso-induced enhancement
same,secreted Aβ,endogenous β-ARs,increases Aβ production
same,"γ-secretase activity, compound alone",γ-secretase [10],γ-secretase activity was enhanced
same,cerebral amyloid plaques,APPswe/PS1ΔE9 mice [3],increased cerebral amyloid plaques; also recorded: accelerated amyloid plaque formation
"CC(C)C[C@@H](NC(=O)[C@H](Cc1ccccc1)NC(=O)CNC(=O)[C@@H](C)NC(=O)[C@@H](N)Cc1ccc(O)cc1)C(=O)O [DADLE, [D-Ala^2, D-Leu^5]-enkephalin]",γ-secretase activity,"γ-secretase [5]; SH-SY5Y neuroblastoma, 1 μM DADLE, 30 minutes",enhanced γ-secretase activity
same,γ-secretase activity in the AP positive fraction,"γ-secretase [5]; SH-SY5Y, 1 μM DADLE 30 minutes, then fractionated",enhanced the γ-secretase activity in the AP positive fraction
same,γ-secretase activity,γ-secretase [11],enhanced γ-secretase activity
Oc1ccc2c3c1O[C@H]1c4[nH]c5ccccc5c4C[C@@]4(O)[C@@H](C2)N(CC2CC2)CC[C@]314 [naltrindole],crossing of the blood-brain barrier (BBB),[6],can cross the BBB
same,"escape latency, visible platform training",APPswe/PS1ΔE9 mice [7],no drug effect was observed
same,"escape latency, hidden platform training",APPswe/PS1ΔE9 mice [7],ameliorated cognitive impairment
same,effect on DADLE-induced Aβ production,δ-opioid receptor (DOR),abolished the effect of DADLE
COCCc1ccc(OCC(O)CNC(C)C)cc1 (centres unmarked) [Metoprolol],"percent time spent in the platform quadrant, probe trial",APPswe/PS1ΔE9 mice [7],showed no effect
same,"percent time spent in the platform quadrant, probe trial",APPswe/PS1ΔE9 mice [7]; listed as metoprolol,had no effect
same,"escape latency, visible platform training",APPswe/PS1ΔE9 mice [7],no drug effect was observed
same,"escape latency, hidden platform training",APPswe/PS1ΔE9 mice [7],showed no effect
concanavalin A [Con A],effect on Iso-induced enhancement of γ-secretase activity,"γ-secretase [10]; C6 glioma, 10 μM Iso 30 min after pretreatment with 0.25 mg/ml Con A or 0.5 M Suc",abolished
CC(C)(C)NCC(O)COc1cccc2c1CC(O)C(O)C2 (centres unmarked) [nadolol],"percent time spent in the platform quadrant, probe trial",APPswe/PS1ΔE9 mice [7],had no effect
same,"escape latency, visible platform training",APPswe/PS1ΔE9 mice [7],No genotype or drug effect
same,"escape latency, hidden platform training",APPswe/PS1ΔE9 mice [7],showed no effect
same,"escape latency, hidden platform training",APPswe/PS1ΔE9 mice [7]; listed as Nadolol,showed no effect on the impairment
CC(C)NCC(O)COc1cccc2ccccc12 (centres unmarked) [propranolol],"percent time spent in the platform quadrant, probe trial",APPswe/PS1ΔE9 mice [7],partially ameliorated the impairment of spatial memory
same,swim speed as cause of the observed effects,APPswe/PS1ΔE9 mice [7],did not result from difference in swim speeds
same,"escape latency, visible platform training",APPswe/PS1ΔE9 mice [7],No genotype or drug effect
same,"escape latency, hidden platform training",APPswe/PS1ΔE9 mice [7],partially ameliorate the impairment
cholera toxin,"γ-secretase activity, compound alone",γ-secretase [10],did not result in enhanced γ-secretase activity
COc1ccc(OC)c(C(O)C(C)NC(C)(C)C)c1 (centres unmarked) [Butoxamine],crossing of the blood-brain barrier (BBB),[6],can cross the BBB
same,swim speed as cause of the observed effects,APPswe/PS1ΔE9 mice [7],not due to difference in swim speeds
same,"escape latency, visible platform training",APPswe/PS1ΔE9 mice [7],no drug effect was observed
same,"escape latency, hidden platform training",APPswe/PS1ΔE9 mice [7],significantly ameliorated cognitive impairment
